From patent publication US4760201A (Exxon Research & Engineering Co., priority 1986, dated 1988)
Where “and” joins values, the source holds several entries; their conditions need not be identical. Equal entries are not always repeated. Where two headings read alike, the source gives them in different places. Blank lines part the entries; values can stand above or below the compound they belong to.

Assays:
[1] = Experimental: The liquids thus passed to the extraction unit were preheated each to a temperature of 60° C. The reciprocating plate column was provided with a hot water heating jacket maintained at 60° C. […] The liquids thereby accumulated were each analyzed by gas chromatography and nuclear magnetic resonance spectroscopy (NMR) for component identification.
[2] = Partitioning of alcohol into neodecanoic acid from sulfuric acid/alcohol feedstreams (Examples 14-21); details: AS 60%, 60° C.
[3] = Comparative runs: partitioning of SBOH and water into neodecanoic acid from aqueous sec-butanol free of sulfuric acid
Description: (§1) In a series of runs, separate portions of the acid/alcohol feedstreams were contacted with the indicated amount of octanoic acid for extraction of sec-butyl alcohol (SBA) therefrom using the indicated contacting temperatures, employing a 60 ml. separatory funnel, with agitation, and employing 3 hours of setting time. The weight percent sec-butyl alcohol in the light phase (i.e., the upper layer comprising the octanoic acid layer) was then analyzed.

[4] = Batch extraction of sec-butyl alcohol (SBA) from acid/alcohol feedstream by aliphatic acids; SBA in light phase; type: physicochemical; details: AS 56.7%, ES 0.5
Excerpt: Thereafter, the thus-formed acid/alcohol […] contacted with the selected amount of a carboxylic acid solvent of this invention, and the results thereby obtained are reported in the associated tables below.

[5] = Effect of solvent/feed ratio on selectivity of extraction (H2O/SBA in upper layer); details: 25° C., AS 56.7%, ES 0.5
Description: as §1

Compound: CCC(C)OC(C)CC (stereo not drawn) [SBE, secondary butyl ether]
- Overall Partition Coefficients, Wt. Fract. (concentration in light phase / in heavy phase) [1]: 81.2

Compound: CCC(C)O (stereo not drawn) [SBOH, sec-butyl alcohol]
- Overall Partition Coefficients, Wt. Fract. (concentration in light phase / in heavy phase) ([1]; Table 1, residence time 3.52 hours, solvent-to-feed 2.04:1, E.S. 1, A.S. 55%, 60° C.): 1.26
- Overall Partition Coefficients, Wt. Fract. (concentration in light phase / in heavy phase) ([1]; Table 2, residence time 3.62, solvent-to-feed 2.098:1, E.S. 1, A.S. 55%, 60° C.): 0.83
- Overall Partition Coefficients, Wt. Fract. (concentration in light phase / in heavy phase) ([1]; Table 3, residence time 3.66 hours, solvent-to-feed 2.043:1, E.S. 1, A.S. 55%, 60° C.): 1.15
- Overall Partition Coefficients, Wt. Fract. (concentration in light phase / in heavy phase) ([1]; Table 4, residence time 3.66 hrs, solvent-to-feed 2.11:1, solvent feed temp. 30° C., E.S. 1, A.S. 55%, 60° C.): 4.51
- Overall Partition Coefficients, Wt. Fract. (concentration in light phase / in heavy phase) ([1]; Table 5, residence time 3.37 hrs, solvent-to-feed 1.23:1, E.S. 1, A.S. 55%, 60° C.): .627
- Overall Partition Coefficients, Wt. Fract. (concentration in light phase / in heavy phase) ([1]; Table 6, residence time 3.60 hrs, solvent-to-feed 2.06:1, E.S. 1, A.S. 60%, 60° C.): 0.340
- Overall Partition Coefficients, Wt. Fract. (concentration in light phase / in heavy phase) ([1]; Table 7, residence time 3.77 hrs, solvent-to-feed 1.38:1, E.S. 1, A.S. 60 wt. %, 60° C.): 0.267
- Overall Partition Coeff. SBOH ([2]; Example 14, ES 0.2, NDA/SBOH 15.6): 0.3
- Overall Partition Coeff. SBOH ([2]; Example 15, ES 0.2, NDA/SBOH 3.9): 0.35
- Overall Partition Coeff. SBOH ([2]; Example 16, ES 0.2, NDA/SBOH 7.9): 0.33
- Overall Partition Coeff. SBOH ([2]; Example 17, ES 0.2, NDA/SBOH 23.2): 0.31
- Overall Partition Coeff. SBOH ([2]; Example 18, ES 0.2, NDA/SBOH 4.7): 1.35
- Overall Partition Coeff. SBOH ([2]; Example 19, ES 1.0, NDA/SBOH 1.3): 0.25
- Overall Partition Coeff. SBOH ([2]; Example 20, ES 1.0, NDA/SBOH 2.6): 0.24
- Overall Partition Coeff. SBOH ([2]; Example 21, ES 1.0, NDA/SBOH 7.9): 0.34
- Overall Partition Coeff. SBOH ([3]; Comparative Example I, 25° C., start SBOH 47.8 wt %): 4.1
- Overall Partition Coeff. SBOH ([3]; Comparative Example II, 25° C., start SBOH 7.3 wt %): 2.2
- Overall Partition Coeff. SBOH ([3]; Comparative Example III, 25° C., start SBOH 63.9 wt %): 4.0
- Overall Partition Coeff. SBOH ([3]; Comparative Example IV, 25° C., start SBOH 13.9 wt %): 2.2
- Overall Partition Coeff. SBOH ([3]; Comparative Example IX, 60° C., start SBOH 28.3 wt %): 6.0
- Overall Partition Coeff. SBOH ([3]; Comparative Example V, 60° C., start SBOH 45.3 wt %): 6.0
- Overall Partition Coeff. SBOH ([3]; Comparative Example VI, 60° C., start SBOH 7.4 wt %): 4.4
- Overall Partition Coeff. SBOH ([3]; Comparative Example VII, 60° C., start SBOH 61.7 wt %): 6.4
- Overall Partition Coeff. SBOH ([3]; Comparative Example VIII, 60° C., start SBOH 13.5 wt %): 4.5

Compound: O [Water, water]
- Overall Partition Coefficients, Wt. Fract. (concentration in light phase / in heavy phase) [1]: 0.012

Compound: butene
- Overall Partition Coefficients, Wt. Fract. (concentration in light phase / in heavy phase) [1]: > 2000

Further lines, with some results ahead:

- SBA in Light Phase ([4]; Table 9, 25 °C, vol:vol 1.0:1): 5.04 wt. %
- SBA in Light Phase ([4]; Table 9, 60 °C, vol:vol 1.0:1): 7.82 wt. %
- selectivity of extraction [5]: high selectivity for alcohol extraction
- wt:wt. ratio H2O/SBA In Upper Layer ([5]; solvent/feed 0.4 (v/v)): 0.099 wt:wt
- wt:wt. ratio H2O/SBA In Upper Layer ([5]; solvent/feed 1.0 (v/v)): 0.054 wt:wt
- wt:wt. ratio H2O/SBA In Upper Layer ([5]; solvent/feed 1.5 (v/v)): 0.045 wt:wt
- wt:wt. ratio H2O/SBA In Upper Layer ([5]; solvent/feed 2.0 (v/v)): 0.067 wt:wt
Compound: CC(C)(C)CCC(=O)O [neoheptanoic acid]

- SBA in Light Phase ([4]; Run 8-1, 60 °C, v:v solvent:feed 1.0): 9.91 wt. %
- SBA in Light Phase ([4]; Run 8-2, 60 °C, v:v solvent:feed 2.0): 7.20 wt. %
- SBA in Light Phase ([4]; Run 8-3, 25 °C, v:v solvent:feed 0.2): 7.38 wt. %
- SBA in Light Phase ([4]; Run 8-4, 25 °C, v:v solvent:feed 0.4): 7.57 wt. %
- SBA in Light Phase ([4]; Run 8-5, 25 °C, v:v solvent:feed 1.0): 6.15 wt. %
- SBA in Light Phase ([4]; Run 8-6, 25 °C, v:v solvent:feed 1.5): 5.37 wt. %
- SBA in Light Phase ([4]; Run 8-7, 25 °C, v:v solvent:feed 2.0): 4.54 wt. %
- SBA in Light Phase ([4]; Table 9, 25 °C, vol:vol 1.0:1): 6.15 wt. %
- SBA in Light Phase ([4]; Table 9, 60 °C, vol:vol 1.0:1): 9.91 wt. %
- wt:wt. ratio H2O/SBA In Upper Layer ([5]; solvent/feed 0.2 (v/v)): 0.066 wt:wt and 0.079 wt:wt
- wt:wt. ratio H2O/SBA In Upper Layer ([5]; solvent/feed 0.4 (v/v)): 0.055 wt:wt
- wt:wt. ratio H2O/SBA In Upper Layer ([5]; solvent/feed 1.0 (v/v)): 0.067 wt:wt
- wt:wt. ratio H2O/SBA In Upper Layer ([5]; solvent/feed 2.0 (v/v)): 0.101 wt:wt
Compound: CCCCCCCC(=O)O [octanoic acid]
- selectivity of extraction [5]: increasing amounts of water being removed
